What was measured:
[1] = tested on: HE cells; assay: Transplantation of treated HE cells into irradiated NSG mice; assay type: in vivo
Procedure: Sorted human HE cells (350,000) were mixed with OP9-DL1 stroma (60,000) and subcultured for 3 days with or without DCA (3 mM) on Matrigel (16 μg/cm^2, Corning)-coated 12-well plates in HE medium (32). Between 100,000-150,000 cells from control or DCA samples were transplanted into sub lethally irradiated (300 cGy) 8-week-old female NOD/Cg-Prkdc^scid Il2^tm1Wj1/SzJ mice (NSG, The Jackson Laboratory) together with 20,000 whole BM support cells from C57BV6.SJL mice (CD45.1^+/CD45.2^+, in house breeding). Cells were transplanted in single cell solution in 250 μL PBS with 2% FBS through intravenous tail vein injection. Drinking water of transplanted NSG mice was supplemented with ciprofloxacin (125 mg/L, HEXAL) for 3 weeks after transplantation to prevent infection. Mice were housed in a controlled environment with 12-hour light-dark cycles with chow and water provided ad libitim. Experiments and animal care were performed in accordance with the Lund University Animal Ethical Committee.
Peripheral blood (PB) was collected from the tail vein into EDTA-coated microvette tubes (Sarstedt, Cat #20.1341.100). […]
Bone marrow was analyzed at the 12-week transplantation endpoint. […]

[2] = tested on: EHT cells; assay: EHT cell subculture with metabolic regulators, flow cytometry; assay type: cell-based, human; details: UK5099 10 μM
Excerpt: The RB9-CB1 human iPSC line (Woods, N.-B. et al. Brief report: efficient generation of hematopoietic precursors and progenitors from human pluripotent stem cell lines. Stem Cells 29, 1158-1164 (2011)) was co-cultured with mouse embryonic fibroblasts (MEFs, Millipore), passaged every six days and processed to form embryoid bodies (EBs) as described previously (Guibentif, C. et al. Single-Cell Analysis Identifies Distinct Stages of Human Endothelial to-Hematopoietic Transition. Cell Reports 19, 10-19 (2017)). The differentiation protocol used in this study was previously described (Ditadi, A. & Sturgeon, C. M. Directed differentiation of definitive hemogenic endothelium and hematopoietic progenitors from human pluripotent stem cells. Methods 101, 65-72 (2016)), however, small modifications were made to induce both primitive and definitive hematopoiesis, as indicated below and in FIG. 6, a. Newly-formed EBs were first kept in SFD medium supplemented with 1 ng/ml Activin A (on days 0-2) and 3 μM CHIR99021 (on day 2 only). At day 3, media was switched to “Day 3-SP34” medium supplemented with 1 ng/ml Activin A (on day 3 only) and 3 μM CHIR99021 (on day 3 only) until day 6. On day 6, media was replaced by “Day 6-SP34” medium, until day 8. In some experiments where indicated, to obtain a higher yield of HSC-like cells, EBs were kept until day 10: in this case, EBs were plated onto Matrigel (8 μg/cm2, Corning)-coated dishes on day 8 and kept until day 10. Media was changed every day, except on days 5 and 7. On day 8 or 10 (as indicated), EBs were singularized with 5-6 rounds of 5-minute incubations with TryPLE Express (Thermo Fisher Scientific). […]

| Compound | increase of CLP (common lymphoid progenitor) ([1]; FIG. 3, n, BM week 12) [fold] | human CD45+ cells in the peripheral blood ([1]; week 8, 3-day DCA-treated HE cells) | CD43+GPA+ cell output ([2]; day 3, EHT cells) | decrease in CD43+CD45+ population ([2]; day 6, deriving from EHT cells) [fold] |
| --- | --- | --- | --- | --- |
| O=C(O)C(Cl)Cl [DCA, dichloroacetate] | 3 | around 1% |  |  |
| N#CC(=Cc1cn(-c2ccccc2)c2ccccc12)C(=O)O [UK5099, 2-Cyano-3-(1-phenyl-1H-indol-3-yl)-2-propenoic acid] |  |  | absence of bias | 2 |

Source: patent US20250129334A1, “LINEAGE SPECIFICATION DURING STEM CELL TRANSITION” (Amniotics AB, priority 2021, published 2025)
